Measurements reported in US20220288057A1, “CONJOINT THERAPY FOR TREATING SEIZURE DISORDERS” (XENON PHARMACEUTICALS INC., priority 2021, published 2022).
“And” between values parts separate entries of the source, which are not always exact repeats. Equal entries are not always repeated. Where two headings read alike, the source gives them in different places.

Columns and labels:
[1] = Plasma and brain concentrations after MES testing (UHPLC-ESI-MS/MS); settings: for concentration at 2 h: mouse, in vivo;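 as to all read-outs here: brain and plasma were sampled from mice right after the efficacy test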
[2] = test system: tonic hindlimb seizure following corneal stimulation in CF-1 mice; assay: Mouse maximal electroshock (MES) assay, 60 Hz 50 mA corneal stimulation; type: in vivo; settings: for IC50: Mus musculus
Protocol: The interaction of Compound A with other ASMs was evaluated after oral dosing in the mouse maximal electroshock (MES) assay to determine whether some combinations were favorable or unfavorable. Efficacy was quantified by calculating the fraction of animals with a tonic hindlimb seizure following corneal stimulation. Compound Preparation: Compound A was initially solubilized in DMSO. This solution was then added into a 0.5% methyl cellulose solution to create a more even and less aggregated compound suspension. Serial dilutions were prepared from the tube with the highest concentration of Compound A and the compound suspensions were further vortexed prior to animal dosing. The final concentration of DMSO was 5%, an amount with no apparent toxicity or neuroprotection in the MES assay. […] Animals: Adult male CF-1 albino mice (25-35 g) purchased from Harlan-Envigo were used. The mice were housed four per cage and had access to filtered water and chow ad libidum, throughout the experiment. MES Assay: Compounds were administered orally by gavage before testing unless indicated otherwise. During MES testing, a 60-Hz alternating current (50 mA) was delivered for 0.2 seconds through corneal electrodes to the mice. A drop of 0.5% Alcaine solution was placed on the eye prior to current delivery. The electrodes were subsequently placed gently onto the eyes of the animal and the electrical shock was initiated by triggering through a foot-pedal activator. The animals were restrained by hand and gently released as the shock was delivered and the seizure commenced. Animals were monitored for hind limb tonic extension as the end point for this test. Statistical analysis: All statistics were calculated using Prism version 7 software (Graphpad Software). The method used for each experiment is indicated in the results section. Concentration-response curves were calculated as best fits to the equation […] where X was the log of plasma concentration. Unless indicated otherwise, bottom was constrained to be 0. Top was constrained to be the value determined experimentally by vehicle control measurements. Compound A Dose Response: […]

[3] = Compound A 1 mg/kg PO, 0.5 h before assay
[4] = Compound A 1 mg/kg PO, 2 h before assay
[5] = Compound A 2 mg/kg PO, 0.5 h before assay
[6] = Compound A 2 mg/kg PO, 2 h before assay
[7] = Compound A 4 mg/kg PO, 0.5 h before assay
[8] = Compound A 4 mg/kg PO, 2 h before assay
[9] = Compound A 8 mg/kg PO, 0.5 h before assay
[10] = Compound A 8 mg/kg PO, 2 h before assay

Cc1cc(N2CCc3cc(F)ccc3C2)cc(C)c1NC(=O)CC(C)(C)C [Compound A, N-[4-(6-fluoro-3,4-dihydro-1H-isoquinolin-2-yl)-2,6-dimethylphenyl]-3,3-dimethylbutanamide]
Plasma concentration, Mean ([1]; analyte Compound A, 2.5 mg/kg + 2 mg/kg Phenytoin): 58.4 ng/mL and 0.16 μM | concentration at 2 h ([1]; 1 mg/kg, plasma concentration, Compound A 1 mg/kg, mean±SEM, n=15): 66 ± 14 nM | concentration at 2 h ([1]; Brain concentration, Mean, analyte Compound A, 0.25 mg/kg + 2 mg/kg Phenytoin): 50 nM and 18.4 ng/g | concentration at 2 h ([1]; Brain concentration, Mean, analyte Compound A, 0.75 mg/kg + 2 mg/kg Phenytoin): 150 nM and 56.7 ng/g | concentration at 2 h ([1]; Brain concentration, Mean, analyte Compound A, 1 mg/kg + 2 mg/kg Phenytoin): 100 nM and 37 ng/g | concentration at 2 h ([1]; Brain concentration, Mean, analyte Compound A, 1 mg/kg PO + 100 mg/kg Valproic Acid IP): 97 nM and 36 ng/g | concentration at 2 h ([1]; Brain concentration, Mean, analyte Compound A, 2.5 mg/kg + 2 mg/kg Phenytoin): 510 nM and 186 ng/g | concentration at 2 h ([1]; Plasma concentration, Mean, analyte Compound A, 0.25 mg/kg + 2 mg/kg Phenytoin): 20 nM and 5.6 ng/mL | concentration at 2 h ([1]; Plasma concentration, Mean, analyte Compound A, 0.75 mg/kg + 2 mg/kg Phenytoin): 40 nM and 16 ng/mL | concentration at 2 h ([1]; Plasma concentration, Mean, analyte Compound A, 1 mg/kg + 2 mg/kg Phenytoin): 50 nM and 19 ng/mL | concentration at 2 h ([1]; Plasma concentration, Mean, analyte Compound A, 1 mg/kg PO + 100 mg/kg Valproic Acid IP): 42 nM and 15 ng/mL | concentration at 2 h ([1]; Plasma concentration, Mean, analyte Compound A, 2.5 mg/kg + 2 mg/kg Phenytoin): 160 nM and 58.4 ng/mL | concentration at 2 h ([1]; mean total brain concentration, analyte Compound A, 1 mg/kg PO + Valproic Acid 30 mg/kg IP): 75 nM and 28 ng/g | concentration at 2 h ([1]; mean total brain concentration, analyte Compound A, 1 mg/kg PO + Valproic Acid 56 mg/kg IP): 117 nM and 43 ng/g | concentration at 2 h ([1]; mean total plasma concentration, analyte Compound A, 1 mg/kg PO + Valproic Acid 30 mg/kg IP): 38 nM and 14 ng/mL | concentration at 2 h ([1]; mean total plasma concentration, analyte Compound A, 1 mg/kg PO + Valproic Acid 56 mg/kg IP): 18 ng/mL and 50 nM | concentration at 2 h ([1]; po, 0.25 mg/kg, Brain concentration, Mean, Compound A 0.25 mg/kg PO 2 h alone (phenytoin study)): 40 nM and 14.8 ng/g | concentration at 2 h ([1]; po, 0.25 mg/kg, Plasma concentration, Mean, Compound A 0.25 mg/kg PO 2 h alone (phenytoin study)): 10 nM and 4.3 ng/mL | concentration at 2 h ([1]; po, 0.75 mg/kg, Brain concentration, Mean, Compound A 0.75 mg/kg PO 2 h alone (phenytoin study)): 120 nM and 43.8 ng/g | concentration at 2 h ([1]; po, 0.75 mg/kg, Plasma concentration, Mean, Compound A 0.75 mg/kg PO 2 h alone (phenytoin study)): 11.7 ng/mL and 30 nM | concentration at 2 h ([1]; po, 1 mg/kg, Brain concentration, Mean, Compound A 1 mg/kg PO 2 h alone (levetiracetam study)): 60 nM and 20.9 ng/g | concentration at 2 h ([1]; po, 1 mg/kg, Brain concentration, Mean, Compound A 1 mg/kg PO 2 h alone (phenytoin study)): 100 nM and 35 ng/g | concentration at 2 h ([1]; po, 1 mg/kg, Brain concentration, Mean, Compound A 1 mg/kg PO 2 h alone (valproic acid study)): 160 nM and 59 ng/g | concentration at 2 h ([1]; po, 1 mg/kg, Plasma concentration, Mean, Compound A 1 mg/kg PO 2 h alone (levetiracetam study)): 30 nM and 11.1 ng/mL | concentration at 2 h ([1]; po, 1 mg/kg, Plasma concentration, Mean, Compound A 1 mg/kg PO 2 h alone (phenytoin study)): 50 nM and 17 ng/mL | concentration at 2 h ([1]; po, 1 mg/kg, Plasma concentration, Mean, Compound A 1 mg/kg PO 2 h alone (valproic acid study)): 66 nM and 24 ng/mL | concentration at 2 h ([1]; po, 2.5 mg/kg, Brain concentration, Mean, Compound A 2.5 mg/kg PO 2 h alone (phenytoin study)): 390 nM and 144 ng/g | concentration at 2 h ([1]; po, 2.5 mg/kg, Plasma concentration, Mean, Compound A 2.5 mg/kg PO 2 h alone (phenytoin study)): 120 nM and 45.1 ng/mL | fraction of animals without tonic seizures ([2]; Compound A 0.25 mg/kg PO 2 h alone (phenytoin study)): 0/8 | fraction of animals without tonic seizures ([2]; Compound A 0.75 mg/kg PO 2 h alone (phenytoin study)): 2/8 | reduction of the fraction with tonic seizures ([2]; Compound A 1 mg/kg): 26.7% | maximum % seizures of fitted curve, reflecting efficacy of Compound A alone ([2]; Compound A 1 mg/kg PO 2 h): 73.3% | number of mice without tonic seizures/total ([2]; Compound A 1 mg/kg PO 2 h + Vehicle IP 0.5 h (valproic acid study)): 4/15 | fraction of mice without tonic seizures ([2]; Compound A 1 mg/kg PO 2 h alone (levetiracetam study)): 2/11 | fraction of animals without tonic seizures ([2]; Compound A 1 mg/kg PO 2 h alone (phenytoin study)): 2/8 | number of mice with tonic seizures/total number tested [2, 3]: 4/7 | percentage of mice protected from hindlimb tonic extensor component [2, 3]: 42.9% | number of mice with tonic seizures/total number tested [2, 4]: 5/7 | percentage of mice protected from hindlimb tonic extension [2, 4]: 28.6% | number of mice with tonic seizures/total number tested [2, 5]: 2/7 | percentage of mice protected from hindlimb tonic extensor component [2, 5]: 71.4% | number of mice with tonic seizures/total number tested [2, 6]: 4/7 | percentage of mice protected from hindlimb tonic extension [2, 6]: 42.9% | fraction of animals without tonic seizures ([2]; Compound A 2.5 mg/kg PO 2 h alone (phenytoin study)): 4/8 | number of mice with tonic seizures/total number tested [2, 7]: 1/7 | percentage of mice protected from hindlimb tonic extensor component [2, 7]: 85.7% | number of mice with tonic seizures/total number tested [2, 8]: 2/7 | percentage of mice protected from hindlimb tonic extension [2, 8]: 71.4% | number of mice with tonic seizures/total number tested [2, 9]: 3/7 | percentage of mice protected from hindlimb tonic extensor component [2, 9]: 71.4% | number of mice with tonic seizures/total number tested [2, 10]: 1/7 | percentage of mice protected from hindlimb tonic extension [2, 10]: 85.7% | fraction of mice without tonic seizures ([2]; Compound A […] PO 2 h alone (levetiracetam study)): 3/8 | IC50 ([2]; Compound A PO alone, data 2 hours after dosing, read-out: IC50 based upon brain concentration (inhibition of tonic seizures)): 275 nM | IC50 ([2]; Compound A PO alone, data 2 hours after dosing, read-out: IC50 based upon plasma concentration (inhibition of tonic seizures)): 154 nM | IC50 ([2]; Compound A alone (phenytoin study), read-out: IC50 for Compound A (inhibition of tonic seizures, plasma concentration)): 147 nM
